Experimental data published in patent US20140370541A1, “CELL CULTURE LIQUID/GAS-PHASE CHAMBER DEVICES AND RELATED METHODS, AND EXEMPLARY USE FOR MEASURING ACCUMULATION OF GAS-PHASE NITRIC OXIDE IN DIFFERENTIATED CULTURES OF NORMAL AND CYSTIC FIBROSIS AIRWAY EPITHELIAL CELLS” (UNIVERSITY OF NORTH CAROLINA, priority 2012, published 2014).
Several values for one entry are separate records, joined by “and”; a condition that tells them apart may be missing. Equal entries are not always repeated. Entries after “also recorded” stand apart in the source; their conditions may differ.

Tests used:
[1] = test system: control human bronchial epithelial (HBE) cells; assay: Gas-phase NO (gNO) accumulation above control HBE cultures in gas-tight liquid/gas-phase chamber; type: cell-based; conditions: for gas-phase level of NO: differentiated HBE, IFN-γ
Method: (§1) In preliminary studies, attempts were made to measure gNO release from well-differentiated cultures of HBE cells under the conditions described by Suresh et al. (21). Because some difficulties were encountered in obtaining a reproducible, gas-tight seal, both around the holes drilled in the plastic for the fittings and around the lid of the dish using parafilm, the procedure was modified in the following manner. First, 120 ml Teflon® jars (Savillex) were fitted with silicone O-rings to create a leak-proof seal. Two holes were drilled in the lid and fitted with stainless steel luer-lock adapters that were fastened tightly using stainless steel washers and nuts. The luer-lock adapters were fitted with two 3-way plastic stop-cocks to allow connections to be made to the Sievers 270B NO or other analyzers and room or zero air. Manufactured Teflon partition was inserted into the jar to hold the transwells containing cells and to separate the liquid compartment from the headspace.
(§2) For measurement of gNO production by HBE cultures, ALI media was added to each chamber. The apical surface of each culture was washed with 1 ml of PBS for 5 minutes at 37° C. to remove mucus and cell debris. Unless otherwise specified, 50 μl of PBS was added to the apical surface of the culture to provide a thin layer of ASL and allow cilia to beat freely. Three, 12 mm cultures were placed in each chamber, and the chambers were placed in a 37° C./5% CO2 incubator with the lids removed for 5 minutes to allow equilibration with incubator air. The lids were then replaced and tightened with both stop-cocks fully closed. After the appropriate incubation time, the chambers were removed from the incubator and connected to an NO analyzer. The stop-cocks were simultaneously opened to allow room air into the chamber while sample was being withdrawn into the analyzer for measurement. For these studies, NO was measured using a Sievers 280B nitric oxide analyzer with a flow rate of 40 ml/min. For the measurements of gNO production by nasal cultures the flow rate was increased to 500 ml/min. The analyzer was routinely calibrated using NO free air and nitric oxide standards, and zeroed before each experimental run. The level of NO was determined in room air and was usually <5 ppb. The analog output from the NO analyzer was directed into a MACLAB analog-digital converter and computer for data analyses and archiving. All NO measurements are reported as the peak concentration obtained during the sampling period, usually within the first 15 seconds.
(§3) Ciliated cells first become visible ˜14 days after establishment of an air-liquid interface, and the number of ciliated cells continues to increase with time so that by ˜31 days, the cultures typically consist of a multi-layered, pseudo-stratified, heavily ciliated epithelium, as illustrated in FIG. 1B. FIG. 1B is a micrograph 12 of differentiated cultures 14 consisting of a pseudo-stratified epithelium 16 stained with hematoxylin and eosin with abundant ciliated cells at the apical surface 18. To measure gas-phase NO (gNO) production, the apical surface of the cultures were washed, a small volume of PBS (50 ul) was added to wet the surface, and the cultures were incubated overnight (19-20 hours) in a gas-tight, NO inert, cell culture liquid/gas-phase chamber developed for the measurement of gNO (schematically shown in FIG. 2A).

[2] = test system: CF human bronchial epithelial (HBE) cells; assay: Gas-phase NO (gNO) accumulation above CF HBE cultures in gas-tight liquid/gas-phase chamber; type: cell-based
Method: as §1, §2
as §3, with “2A). […]” for “2A).”

[3] = test system: iNOS mRNA in control (Normal) HBE cells; assay: RT-PCR of NOS isoform RNA in control HBE cultures; type: cell-based, human
Method: To examine the effect of an inflammatory cytokine on NO production, well-differentiated cultures of normal HBE cells were treated with different concentrations of interferon-gamma (IFN-γ), a potent inducer of iNOS (7-10). Total RNA was isolated and RT-PCR was used to qualitatively assess the level of the NOS isoforms. […] To examine the effect of IFN-γ on gNO, well-differentiated cultures (mean age 128 days) of control HBE cells were treated with interferon-gamma (IFN-γ) overnight. Treatment with 100 ng/ml of IFN-γ increased the level of accumulated NO>50-fold (see FIG. 5), averaging 576+/−200 ppb (n=22; 8 donors). The IFN-γ induced increase in NO was highly significant (p=6.5×10E-6). Increased levels of iNOS RNA and gNO were observed as early as 6 hours after treatment (data not shown), and levels of NO continued to increase for at least 24 hours.

[4] = test system: iNOS mRNA in cystic fibrosis (CF) HBE cells; assay: RT-PCR of iNOS mRNA in CF HBE cultures; type: cell-based, human; conditions: differentiated CF HBE stimulated with IFN-γ, qualitative RT-PCR
HBE cells = assay: Total nitrate/nitrite (NOx) in basal media; type: cell-based, human; conditions: cultures treated with IFN-γ
Method: Measurements of total nitrite/nitrate in apical and basolateral media samples were performed using the Parameter kit (R&D Systems, Minneapolis, Minn.) according to the manufacturer's instructions. Briefly, a 0.5 ml sample of media was obtained from the basolateral chamber at the conclusion of the experiment and frozen at −20° C. until analyzed. Each sample was assayed in duplicate and compared to a standard curve, which was prepared in the same ALI media used to culture the cells.
Nitric oxide present in biological fluids rapidly reacts with other molecules to produce a variety of products. In aqueous solutions, nitrite and nitrate are two of the major metabolites of NO reaction. To determine if the level of NO products in the basal media increased in a similar manner as the levels of gNO, the total amount of nitrate/nitrite (NOx) in a subset of experiments using the Griese reaction was measured. As expected, the level of nitrate/nitrite in the media was higher in cultures treated with IFN-γ than in untreated cultures, averaging 9.3+/−3.1 μM in treated cultures compared to 2.0+/−0.5 μM in untreated cultures (p=0.005; donors=7, 3). The level of NOx in the media increased proportionally to the level of gNO, with a correlation coefficient of 0.74 (y=2.33x+0.28; R^2=0.74), as shown in the chart 92 in FIG. 9. […]

[5] = undifferentiated control HBE cultures, IFN-γ treatment

Row | Molecule | inhibition of gNO production ([1]; control HBE cells, preliminary experiment FIG. 4A, after IFN-γ treatment) | NO concentration ([1]; 6 hr incubation with 10 μL INF-γ (100 ng/ml) in HBSS medium, FIG. 4B) | gas-phase level of NO ([1]; 6 hours, 50 μL PBS) | gas-phase level of NO ([1]; 6 hours, submerged with 420 μL PBS) | gas-phase level of NO ([1]; 20 hours, 50 μL PBS) | gas-phase level of NO ([1]; 20 hours, submerged with 420 μL PBS) | fold increase of accumulated gNO over baseline ([1]; differentiated control HBE cultures, 100 ng/ml IFN-γ) | level of accumulated gNO ([1]; differentiated control HBE cultures, 100 ng/ml IFN-γ overnight (19-20 hours), 50 μl PBS apical) | fold increase in gNO [1, 5] [fold] | level of gNO [1, 5] | effect on gNO ([1]; undifferentiated cultures, IFN-γ treatment) | level of gNO ([2]; differentiated CF HBE cultures, IFN-γ 100 ng/ml, 19-20 hours) | level of gNO ([2]; differentiated CF cells stimulated with IFN-γ, submerged with 420 μl PBS) | level of gNO ([2]; differentiated CF cells stimulated with IFN-γ, submersion experiments, not submerged) | ratio of gNO, control cells versus CF cells after IFN-γ treatment ([2]; differentiated cultures treated with IFN-γ) [fold] | level of gNO ([2]; undifferentiated CF cells after stimulation with IFN-γ) | levels of nNOS and eNOS ([3]; control HBE treated with IFN-γ, RT-PCR (not shown)) | level of iNOS RNA / iNOS expression ([3]; differentiated control HBE, increasing concentrations of IFN-γ, qualitative RT-PCR) | iNOS expression [4] | level of nitrate/nitrite in the media (HBE cells) [µM]
1 | COC(=O)[C@@H](N)CCCNC(=N)N[N+](=O)[O-] [L-NAME, reference compound] | inhibited completely | – | – | – | – | – | – | – | – | – | – | – | – | – | – | – | – | – | – | –
2 | interferon gamma [IFN-γ] | – | marked elevation | 379+/−210 ppb | 6.6+/−5.6 ppb | 1642.5+/−31 ppb | 26.5+/−6.4 ppb | > 50 fold and ~50 fold | 576 ppb and 576+/−200 ppb and > 500 ppb | ~2 | 9.5+/−3.3 ppb and ~10 ppb | no significant effect | 192 ppb and 192.3+/−68.9 ppb | 11+/−4.3 ppb | 98+/−35 ppb | 3 | 15.6+/−6.8 ppb | relatively unchanged | induced iNOS expression; also recorded: clear increase | increase in iNOS expression | 9.3 ± 3.1
